# Measured values reported in ChEMBL document CHEMBL1201862, “PubChem BioAssay data set” (2004).
#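 Grown in 96-well plates, cells were treated for 48 hours with each compound at five concentrations. Insufficient inhibition: endpoint recorded as highest concentration tested. GI50 marks 50% less growth.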 Calls of active or inactive are those of the source. Rule as the data show it: active = GI50 up to about 1.1 µM and inactive = higher.
# Assays:
# Experiment in all cases: growth of human tumour cells (NCI), 48 h
# KM-20L2 = test system: KM-20L2
# DLD-1 = test system: DLD-1
# LXFL 529 = test system: LXFL 529
# SNB-78 = test system: SNB-78
# XF498 = test system: XF498
# DMS-273 = test system: DMS-273
# RXF 631 = test system: RXF 631
# HOP-18 = test system: HOP-18
# DMS-114 = test system: DMS-114
SMILES,GI50 (KM-20L2),GI50 (DLD-1),GI50 (LXFL 529),GI50 (SNB-78),GI50 (XF498),GI50 (DMS-273),GI50 (RXF 631),GI50 (HOP-18),GI50 (DMS-114)
O=C(NCc1ccncc1)C1COc2cc(-c3cc(=O)c4ccccc4o3)ccc2O1 (configuration not stated),> 100 µM (inactive),> 100 µM (inactive),> 100 µM (inactive),> 100 µM (inactive),> 100 µM (inactive),–,–,–,–
CCC1CN2CCc3cc(OC)c(OC)cc3C2CC1CC1c2cc(OC)c(OC)cc2CCN1C(=O)C1CCCN1C(=O)OCc1ccccc1 (configuration not stated),16.7 µM (inactive),15.6 µM (inactive),16.3 µM (inactive),16 µM (inactive),16.6 µM (inactive),16.3 µM (inactive),18.5 µM (inactive),23.1 µM (inactive),13.9 µM (inactive)
CC(=O)Nc1ccccc1-c1nc2ccccc2nc1-c1ccccc1,> 100 µM (inactive),> 100 µM (inactive),> 100 µM (inactive),> 100 µM (inactive),> 100 µM (inactive),> 100 µM (inactive),–,0.521 µM (active),> 100 µM (inactive)
CC(C)C1CC2C(=O)N(c3ccccc3)C(=O)C2c2[nH]c3ccccc3c21 (configuration not stated),73.6 µM (inactive),42.5 µM (inactive),–,22.4 µM (inactive),23.3 µM (inactive),9.84 µM (inactive),–,–,20.4 µM (inactive)
CCCCCCC(=O)C/C(CCC(=O)N(Cc1ccccc1)Cc1ccccc1)=N\NC(N)=O,> 100 µM (inactive),–,> 100 µM (inactive),> 100 µM (inactive),> 100 µM (inactive),> 100 µM (inactive),> 100 µM (inactive),> 100 µM (inactive),> 100 µM (inactive)
N#C/C(=C\c1ccccc1F)C(=O)c1ccccc1,> 100 µM (inactive),–,> 100 µM (inactive),> 100 µM (inactive),> 100 µM (inactive),> 100 µM (inactive),–,–,> 100 µM (inactive)
CCOC(=O)C1CCCCN1C(=O)OCc1ccccc1 (configuration not stated),–,> 100 µM (inactive),> 100 µM (inactive),> 100 µM (inactive),14.2 µM (inactive),> 100 µM (inactive),–,–,97.7 µM (inactive)
N#C/C(=C\c1ccc2[nH]ccc2c1)C(=O)NCCCCNC(=O)/C(C#N)=C/c1ccc2[nH]ccc2c1,> 100 µM (inactive),> 100 µM (inactive),> 100 µM (inactive),> 100 µM (inactive),> 100 µM (inactive),> 100 µM (inactive),–,–,> 100 µM (inactive)
CC(=O)Nc1ccc(-c2nnc(SCC(=O)Nc3ccc([N+](=O)[O-])cc3)o2)cc1,14.4 µM (inactive),11.9 µM (inactive),7.93 µM (inactive),16.1 µM (inactive),–,10.6 µM (inactive),–,16.4 µM (inactive),3.3 µM (inactive)
CC1(C2COC(=O)C2)SCCCS1 (configuration not stated),> 100 µM (inactive),> 100 µM (inactive),> 100 µM (inactive),–,> 100 µM (inactive),> 100 µM (inactive),–,> 100 µM (inactive),> 100 µM (inactive)
CCN(CC)C(=O)c1c(Cl)cc(N(CC)CC)oc1=O,> 100 µM (inactive),> 100 µM (inactive),> 100 µM (inactive),> 100 µM (inactive),> 100 µM (inactive),> 100 µM (inactive),–,> 100 µM (inactive),> 100 µM (inactive)
COc1ccc(C(=O)C(c2ccc(OC)cc2)C2(O)C(=O)Nc3c2ccc(Cl)c3C)cc1 (configuration not stated),> 100 µM (inactive),–,> 100 µM (inactive),> 100 µM (inactive),–,–,34.9 µM (inactive),58.9 µM (inactive),> 100 µM (inactive)
CCOC(=O)CN1C(=O)c2cc([N+](=O)[O-])cc3cc([N+](=O)[O-])cc(c23)C1=O,50.8 µM (inactive),5.86 µM (inactive),12.3 µM (inactive),4.2 µM (inactive),> 100 µM (inactive),> 100 µM (inactive),50.7 µM (inactive),> 100 µM (inactive),57.7 µM (inactive)
CCOc1ccccc1NC(=O)C(=O)CC(=O)c1sc(Nc2nnc(-c3ccc(Cl)c(Cl)c3)o2)nc1C,> 100 µM (inactive),88.7 µM (inactive),> 100 µM (inactive),> 100 µM (inactive),–,59 µM (inactive),–,> 100 µM (inactive),> 100 µM (inactive)
CC(C)(C)c1ccc2c(c1)S(=O)(=O)Nc1ccccc1NS(=O)(=O)c1cc(C(C)(C)C)ccc1OCCOCCOCCO2,–,> 100 µM (inactive),–,59.8 µM (inactive),–,> 100 µM (inactive),97.3 µM (inactive),> 100 µM (inactive),> 100 µM (inactive)
CCCCCCCCCCCC(=O)OCCOCCOCCOCCOCCOCc1ccc(OC)cc1,> 100 µM (inactive),> 100 µM (inactive),> 100 µM (inactive),> 100 µM (inactive),–,> 100 µM (inactive),> 100 µM (inactive),> 100 µM (inactive),> 100 µM (inactive)
CC(=O)OCC1OC(n2c(-c3ccc(N)cc3)cc(-c3ccco3)c(C#N)c2=O)C(OC(C)=O)C(OC(C)=O)C1OC(C)=O (configuration not stated),> 50 µM (inactive),> 50 µM (inactive),11.1 µM (inactive),> 50 µM (inactive),–,5.26 µM (inactive),44.3 µM (inactive),> 50 µM (inactive),2.64 µM (inactive)
N#CC(/C(=N\NC(=O)c1ccncc1)C(=O)Nc1ccc([N+](=O)[O-])cc1[N+](=O)[O-])c1nc(-c2ccc(Br)cc2)cs1 (configuration not stated),> 100 µM (inactive),> 100 µM (inactive),> 100 µM (inactive),> 100 µM (inactive),–,–,> 100 µM (inactive),–,> 100 µM (inactive)
C#CCOCn1cnc2c(Cl)ncnc21,–,> 100 µM (inactive),> 100 µM (inactive),> 100 µM (inactive),> 100 µM (inactive),> 100 µM (inactive),> 100 µM (inactive),> 100 µM (inactive),41.4 µM (inactive)
COC1(OC)CC2C(=O)N(Cc3ccccc3)C1C=C2S(=O)(=O)c1ccccc1 (configuration not stated),18.8 µM (inactive),12.7 µM (inactive),15.6 µM (inactive),21.8 µM (inactive),17.8 µM (inactive),–,–,17.1 µM (inactive),17.2 µM (inactive)
COS(=O)c1cc(Cl)cc(Cl)c1OC(=O)CSSCC(=O)Oc1c(Cl)cc(Cl)cc1S(=O)OC (configuration not stated),27.3 µM (inactive),15.3 µM (inactive),21 µM (inactive),22.9 µM (inactive),–,12.4 µM (inactive),20.3 µM (inactive),21.6 µM (inactive),15.8 µM (inactive)
CCSC(SCC)c1cc2c(cc1Br)OCO2,11.5 µM (inactive),41 µM (inactive),–,26.5 µM (inactive),20.4 µM (inactive),3.7 µM (inactive),13.1 µM (inactive),–,15.5 µM (inactive)
